Source: patent US20250304700A1, “ANTI-BLOOD DENDRITIC CELL ANTIGEN 2 ANTIBODIES AND USES THEREOF” (Biogen MA Inc., priority 2012, published 2025)

How the values were obtained:
surface human BDCA2 = target: T1, surface human BDCA2 (Homo sapiens, UniProt Q8WTT0); test: Direct binding dilution titration FACS on surface human BDCA2; details: transfected cells co-expressing BDCA2 and FcεRIγ
T1 construct: stably transfected DG44 CHO cells co-expressing full-length BDCA2 and FcεRIγcDNAs (human or cynomolgus monkey); expressed in transfected cells
T1 sequence (Q8WTT0 1-213): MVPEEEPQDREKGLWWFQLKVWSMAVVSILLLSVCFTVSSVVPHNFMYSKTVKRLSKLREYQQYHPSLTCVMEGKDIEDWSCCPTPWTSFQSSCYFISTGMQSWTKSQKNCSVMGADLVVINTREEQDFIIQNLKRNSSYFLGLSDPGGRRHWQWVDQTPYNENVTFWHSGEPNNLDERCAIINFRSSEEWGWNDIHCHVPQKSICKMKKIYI
T1 sequence (P30273 19-86 partner): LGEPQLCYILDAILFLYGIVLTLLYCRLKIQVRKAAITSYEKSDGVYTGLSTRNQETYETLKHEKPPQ
Method: Expression vectors (ch24F4 heavy chain vectors pYL670 or pYL672 and ch24F4 light chain vector pYL671) were co-transfected into 293-EBNA cells and transfected cells were tested for antibody secretion and specificity (empty vector- and a molecularly cloned irrelevant mAb vector-transfected cells served as controls). […] Direct FACS binding to surface human BDCA2 confirmed the specificity of ch24F4. The EC50 binding of both variants of ch24F4 was equivalent to that of the murine 24F4 mAb by direct binding to surface expressed human BDCA2 by dilution titration FACS assay. Stable CHO cell lines secreting ch24F4-huIgG1, kappa mAb and agly ch24F4-huIgG4/G1 hybrid kappa mAb were produced by co-transfection with pYL672/pYL671 and pYL670/pYL671, respectively.
Site-directed mutagenesis was performed using Agilent's QuikChange II mutagenesis kit following the manufacturer's recommended protocol. The C95S variant was constructed using the mutagenic primer 5′ GCAACCTATTACTGTCAACAAAGTAATGAGGATCCTCGGAC 3′ (SEQ ID NO: 38) and its reverse complement, which introduced a new HincII site, producing plasmid pEAG2678. The C95T variant was constructed using the mutagenic primer 5′ CAACCTATTACTGTCAGCAAACTAATGAAGATCCTCGGACGTTCG 3′ (SEQ ID NO: 39) and its reverse complement, which removed a BamHI site, producing plasmid pEAG2679. […]

[1] = system: TLR9-induced cytokines and chemokines by purified pDCs; test: ELISA/multiplex of cytokines from CpG-A stimulated purified pDCs; assay type: cell-based, human
Method: Shown in FIG. 17 are the amounts of secreted IFNα and IL-6 measured from a representative donor of three tested healthy donors.
BDCA2 ligation suppresses the ability of pDCs to produce type I IFNs in response to TLR ligands (see FIG. 16). […] Specifically, pDCs from human healthy donors were isolated using a two-step magnetic bead separation procedure (MACS kit, Miltenyi Biotec). […] The plates containing pDCs were incubated for 18 hours at 37° C. and supernatants collected for use in ELISA or multiplex assays to measure concentrations of inflammatory cytokines and chemokines.

[2] = system: type I IFN subtype transcription in pDCs; test: qPCR of type I IFN subtypes in Sm/RNP IC stimulated pDCs; assay type: cell-based, human; details: 10 μg/mL BIIB059, 16 hours
Method: Sm/RNP immune complexes (IC) were pre-formed by mixing sm-RNP from calf thymus and anti-RNP antibodies purified from sera of SLE patients for 30 minutes in serum-free medium. pDCs from human healthy donors were isolated using a two-step magnetic bead separation procedure (MACS kit, Miltenyi Biotec). […] The plates containing pDC were incubated for 16 hours at 37° C. and 5% CO2. pDC cells were collected and RNA from pDC was isolated for evaluation in qPCR reaction.

[3] = 5 μM CPG-A, increasing concentrations of BIIB059

| direct binding to surface human BDCA2, in words (surface human BDCA2) | Substance | TLR9-induced IFNα, TNFα, IL-6, CCL3, CCL4, CCL5 ([1]; 1 μM CPG-A, 10 μg/mL antibody, 18 hours) | IFNα production [1, 3] | IL-6 production [1, 3] | ability to inhibit CPG-A-induced IFNα by pDCs ([1]; BIIB059 compared with 24F4A-Agly) | transcript level of type I IFN subtypes [2] |
| --- | --- | --- | --- | --- | --- | --- |
| “best” variants | 24F4S: hu24F4 H4/L1 with C95S light chain; differs from BIIB059 by 1 amino acid residue |  |  |  |  |  |
|  | BIIB059: humanized IgG1 anti-BDCA2 antibody, mature heavy chain SEQ ID NO: 4 and mature light chain SEQ ID NO: 3 | potently inhibited | potently inhibited | greatly reduced | undistinguishable | inhibited the transcript level of all type I IFN subtypes tested |
